# Data published in ChEMBL document CHEMBL1201862, “PubChem BioAssay data set” (2004).
# Activity calls are given as the source filed them.
# Tests used:
# [1] = Luminescence Cell-Based Dose Retest to Confirm Inhibitors of Cancer Stem Cells. [Related pubchem assays (depositor defined):AID2717, AID2721]; assay type: functional; details: Homo sapiens
# [2] = molecular target: Heat shock protein HSP 90-alpha (Homo sapiens, UniProt P07900); assay type: functional, organism-based
# [3] = molecular target: Induced myeloid leukemia cell differentiation protein Mcl-1 (Homo sapiens, UniProt Q07820); assay type: functional
# [4] = molecular target: T1, High affinity choline transporter 1 (Homo sapiens, UniProt Q9GZV3); experiment: human choline transporter blockers, potency – cell-based, 5-point CRC, membrane potential dye, dose response (AID 504840); assay type: functional
# T1 sequence (Q9GZV3 whole entry): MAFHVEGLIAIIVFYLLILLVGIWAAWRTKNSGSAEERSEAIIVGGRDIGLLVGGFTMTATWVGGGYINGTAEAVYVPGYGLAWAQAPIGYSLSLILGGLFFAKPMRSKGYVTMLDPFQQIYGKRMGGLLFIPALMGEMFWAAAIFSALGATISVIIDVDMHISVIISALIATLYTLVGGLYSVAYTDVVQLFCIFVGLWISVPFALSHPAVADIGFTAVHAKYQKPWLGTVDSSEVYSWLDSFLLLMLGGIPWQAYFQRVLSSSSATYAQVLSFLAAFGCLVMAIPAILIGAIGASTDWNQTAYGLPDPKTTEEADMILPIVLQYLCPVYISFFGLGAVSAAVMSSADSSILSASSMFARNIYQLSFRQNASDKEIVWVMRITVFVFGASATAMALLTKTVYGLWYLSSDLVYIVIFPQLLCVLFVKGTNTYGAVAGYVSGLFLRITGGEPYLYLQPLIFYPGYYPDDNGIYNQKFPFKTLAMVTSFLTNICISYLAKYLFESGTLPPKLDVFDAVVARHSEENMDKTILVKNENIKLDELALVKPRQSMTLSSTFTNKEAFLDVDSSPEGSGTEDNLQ
# [5] = tested on: BJ; experiment: BJ-TERT fibroblast viability loss – cell-based, RAS-independent, luminescence, dose response (AID 1933); assay type: functional; details: Homo sapiens
# [6] = tested on: BJ; experiment: cells; assay type: functional, cell-based; details: Homo sapiens
# [7] = tested on: BJ; experiment: BJ-TERT-LT-ST fibroblast viability loss – cell-based, RAS-independent, luminescence, dose response (AID 1935); assay type: functional; details: Homo sapiens;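 also: BJ fibroblasts immortalized with TERT plus LT and ST oncogenes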
# [8] = DRD fibroblast viability loss – cell-based, non-viral oncogenic, luminescence, dose response (AID 1934); assay type: functional; details: Homo sapiens
# [9] = tested on: BJ; experiment: growth inhibition of engineered Ras-driven BJ cells – cell-based, alamar blue fluorescence, cherrypicked samples, dose response (AID 2631); assay type: functional; details: Homo sapiens;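 also: confirmatory dose-response assay in RAS-dependent BJ fibroblasts engineered with TERT, LT and ST, with cytotoxicity read by fluorescence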
# [10] = reduction of Shn3 3'UTR-driven luciferase in osteoblasts – cell-based, Clone20 osteoblasts, firefly luciferase, cherry-picked, dose response (AID 624132); assay type: functional;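 also: firefly luciferase luminescence from reporter carrying the Shn3 3'UTR in osteoblasts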
# [11] = loss of viability in HepG2 cells – cell-based, CellTiter-Glo, cherry-picked, cytotoxicity control for Shn3 inhibitor project, dose response (AID 624134); assay type: functional
# [12] = molecular target: T2, Mannose-6-phosphate isomerase (Homo sapiens, UniProt P34949); experiment: MPI inhibition at elevated mannose 6-phosphate – biochemical, fluorescence intensity, high mannose 6-phosphate, primary screen (AID 1220)
# T2 sequence (P34949 whole entry): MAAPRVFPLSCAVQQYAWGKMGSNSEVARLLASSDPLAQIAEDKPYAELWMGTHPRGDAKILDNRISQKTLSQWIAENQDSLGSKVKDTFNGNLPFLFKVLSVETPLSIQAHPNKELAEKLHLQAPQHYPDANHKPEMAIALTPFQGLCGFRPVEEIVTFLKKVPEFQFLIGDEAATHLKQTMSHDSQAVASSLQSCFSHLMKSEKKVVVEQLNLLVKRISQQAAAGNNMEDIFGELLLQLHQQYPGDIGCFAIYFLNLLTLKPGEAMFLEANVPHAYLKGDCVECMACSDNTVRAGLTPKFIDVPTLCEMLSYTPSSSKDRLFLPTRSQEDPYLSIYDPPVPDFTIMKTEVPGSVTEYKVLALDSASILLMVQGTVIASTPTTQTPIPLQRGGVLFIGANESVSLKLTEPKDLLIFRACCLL
# [13] = molecular target: T3, Short transient receptor potential channel 4 (Mus musculus, UniProt Q9QUQ5); experiment: block of DAMGO-driven TRPC4 calcium entry – cell-based, HEK293 TRPC4/mu-opioid, Fluo-4 calcium, dose response (AID 434942); assay type: functional;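 also: potency of inhibitors blocking the TRPC4 calcium response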
# T3 sequence (Q9QUQ5 whole entry): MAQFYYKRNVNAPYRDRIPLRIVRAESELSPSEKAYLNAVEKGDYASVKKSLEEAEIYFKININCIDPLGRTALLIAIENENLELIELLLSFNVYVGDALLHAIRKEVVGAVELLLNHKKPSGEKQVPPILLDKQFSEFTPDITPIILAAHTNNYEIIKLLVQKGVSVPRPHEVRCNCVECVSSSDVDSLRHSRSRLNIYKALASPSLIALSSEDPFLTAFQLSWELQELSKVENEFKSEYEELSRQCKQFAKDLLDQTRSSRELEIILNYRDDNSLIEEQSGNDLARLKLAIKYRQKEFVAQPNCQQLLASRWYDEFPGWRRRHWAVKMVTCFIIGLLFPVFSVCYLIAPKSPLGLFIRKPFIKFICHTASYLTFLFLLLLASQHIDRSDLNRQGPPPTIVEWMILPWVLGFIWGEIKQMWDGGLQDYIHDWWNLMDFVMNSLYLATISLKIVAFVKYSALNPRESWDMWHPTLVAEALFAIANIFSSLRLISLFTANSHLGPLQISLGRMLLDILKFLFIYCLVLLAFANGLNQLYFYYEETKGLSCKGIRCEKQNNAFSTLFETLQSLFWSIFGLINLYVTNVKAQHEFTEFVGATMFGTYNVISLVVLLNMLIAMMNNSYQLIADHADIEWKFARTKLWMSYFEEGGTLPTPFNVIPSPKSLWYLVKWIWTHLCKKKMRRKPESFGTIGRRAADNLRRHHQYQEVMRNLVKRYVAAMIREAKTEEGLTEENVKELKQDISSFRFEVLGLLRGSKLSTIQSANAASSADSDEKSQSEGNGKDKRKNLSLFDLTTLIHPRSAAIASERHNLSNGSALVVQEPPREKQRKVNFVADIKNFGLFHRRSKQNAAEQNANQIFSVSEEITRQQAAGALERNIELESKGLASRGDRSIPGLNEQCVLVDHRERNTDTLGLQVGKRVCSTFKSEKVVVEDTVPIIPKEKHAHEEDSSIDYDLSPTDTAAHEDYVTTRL
# [14] = molecular target: T4, Rac GTPase-activating protein 1 (Homo sapiens, UniProt Q9H0H5); experiment: blockers of MgcRacGAP-driven Rac1 GTP hydrolysis – biochemical, ADP Hunter fluorescence, primary and confirmatory, confirmation (AID 624330); assay type: functional
# T4 sequence (Q9H0H5 whole entry): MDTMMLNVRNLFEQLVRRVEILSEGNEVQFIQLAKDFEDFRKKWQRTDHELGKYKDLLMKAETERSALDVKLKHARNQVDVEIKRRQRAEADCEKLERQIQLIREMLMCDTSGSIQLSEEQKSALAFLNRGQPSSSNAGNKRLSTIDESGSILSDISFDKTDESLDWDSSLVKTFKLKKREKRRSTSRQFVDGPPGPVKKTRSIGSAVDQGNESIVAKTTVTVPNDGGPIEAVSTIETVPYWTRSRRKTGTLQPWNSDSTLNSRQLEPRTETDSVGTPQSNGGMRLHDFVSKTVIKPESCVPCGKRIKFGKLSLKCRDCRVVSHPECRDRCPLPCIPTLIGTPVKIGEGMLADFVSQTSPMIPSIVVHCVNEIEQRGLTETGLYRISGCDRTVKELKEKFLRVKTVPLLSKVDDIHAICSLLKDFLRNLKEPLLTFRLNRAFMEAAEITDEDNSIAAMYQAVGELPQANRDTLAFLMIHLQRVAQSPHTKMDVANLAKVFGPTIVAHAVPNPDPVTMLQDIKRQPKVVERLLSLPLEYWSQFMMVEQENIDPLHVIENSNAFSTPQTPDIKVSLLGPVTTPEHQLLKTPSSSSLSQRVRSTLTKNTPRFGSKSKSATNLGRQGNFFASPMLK
# [15] = HEK-293T viability loss after treatment – luminescence, T-cell screen hits, cytotoxicity control for TCR NF-kB inhibitor project, dose response (AID 489026); assay type: functional, cell-based;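 also: cells exposed to compound about 14 hours before the viability readout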
# [16] = molecular target: T5, Polyadenylate-binding protein 1 (Homo sapiens, UniProt P11940); experiment: MLLE binding blockers, Cy5 peptide tracer – biochemical, fluorescence polarization, Cy5-PAM2 peptide, secondary, miRNA deadenylation inhibitor project, dose response (AID 602260); assay type: functional; details: read-out: IC50_Mean
# [17] = molecular target: T5, Polyadenylate-binding protein 1; experiment: MLLE domain peptide-binding blockers, IC50 – biochemical, fluorescence polarization, FITC-PAM2 peptide, dose response (AID 602259); assay type: functional; details: read-out: IC50_Mean
# [18] = molecular target: Luciferin 4-monooxygenase (Photinus pyralis, UniProt P08659); experiment: inhibition of purified Photinus pyralis luciferase – biochemical, luminescence, dose response (AID 1891)
# [19] = Luminescence Cell-Based Dose Confirmation HTS to Identify Inhibitors of Platelet Dense Granule Release. [Related pubchem assays: 1663 (Primary HTS), 1678 (Summary of Project)]; assay type: functional
# [20] = molecular target: T6, Carboxy-terminal domain RNA polymerase II polypeptide A small phosphatase 1 (Homo sapiens, UniProt Q9GZU7); experiment: CTDSP1 inhibitors, concentration-response, biochemical, absorbance readout, ultra-high-throughput screen actives (AID 540297); assay type: functional
# T6 sequence (Q9GZU7 whole entry): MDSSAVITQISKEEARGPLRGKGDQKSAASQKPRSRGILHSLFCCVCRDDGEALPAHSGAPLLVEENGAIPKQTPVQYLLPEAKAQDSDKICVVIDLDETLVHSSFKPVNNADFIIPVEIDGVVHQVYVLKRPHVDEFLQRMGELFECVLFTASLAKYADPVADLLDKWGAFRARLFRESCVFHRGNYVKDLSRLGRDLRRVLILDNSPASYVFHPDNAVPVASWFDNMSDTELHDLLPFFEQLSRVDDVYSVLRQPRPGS
# T5 sequence (P11940 whole entry, the tested form may be a part): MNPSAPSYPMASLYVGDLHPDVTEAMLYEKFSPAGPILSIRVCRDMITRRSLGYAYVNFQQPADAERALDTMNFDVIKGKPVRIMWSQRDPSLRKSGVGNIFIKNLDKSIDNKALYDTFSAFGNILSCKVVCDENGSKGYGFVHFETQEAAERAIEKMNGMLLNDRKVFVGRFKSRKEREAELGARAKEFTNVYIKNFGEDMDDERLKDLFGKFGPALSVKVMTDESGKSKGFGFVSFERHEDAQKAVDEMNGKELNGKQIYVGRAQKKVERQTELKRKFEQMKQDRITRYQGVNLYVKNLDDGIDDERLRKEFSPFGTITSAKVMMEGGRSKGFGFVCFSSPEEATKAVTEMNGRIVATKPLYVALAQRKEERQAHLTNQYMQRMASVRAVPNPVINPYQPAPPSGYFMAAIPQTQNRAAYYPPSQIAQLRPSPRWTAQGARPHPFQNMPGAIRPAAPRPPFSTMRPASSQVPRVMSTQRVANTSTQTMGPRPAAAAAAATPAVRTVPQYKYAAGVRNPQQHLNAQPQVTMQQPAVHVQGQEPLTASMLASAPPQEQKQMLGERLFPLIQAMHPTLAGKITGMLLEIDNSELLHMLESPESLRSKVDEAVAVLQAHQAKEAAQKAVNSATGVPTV
# Sequence of Induced myeloid leukemia cell differentiation protein Mcl-1 (Q07820 whole entry): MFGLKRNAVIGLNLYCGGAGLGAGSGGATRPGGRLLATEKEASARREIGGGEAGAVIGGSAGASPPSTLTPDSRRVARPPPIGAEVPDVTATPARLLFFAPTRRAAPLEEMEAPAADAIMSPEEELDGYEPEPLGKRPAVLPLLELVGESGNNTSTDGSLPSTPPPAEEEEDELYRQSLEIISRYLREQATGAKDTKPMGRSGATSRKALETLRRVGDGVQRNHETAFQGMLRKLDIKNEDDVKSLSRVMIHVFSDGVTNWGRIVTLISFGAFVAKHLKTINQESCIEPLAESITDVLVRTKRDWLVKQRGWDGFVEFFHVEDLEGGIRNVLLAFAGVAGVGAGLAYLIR
# Sequence of Luciferin 4-monooxygenase (P08659 whole entry): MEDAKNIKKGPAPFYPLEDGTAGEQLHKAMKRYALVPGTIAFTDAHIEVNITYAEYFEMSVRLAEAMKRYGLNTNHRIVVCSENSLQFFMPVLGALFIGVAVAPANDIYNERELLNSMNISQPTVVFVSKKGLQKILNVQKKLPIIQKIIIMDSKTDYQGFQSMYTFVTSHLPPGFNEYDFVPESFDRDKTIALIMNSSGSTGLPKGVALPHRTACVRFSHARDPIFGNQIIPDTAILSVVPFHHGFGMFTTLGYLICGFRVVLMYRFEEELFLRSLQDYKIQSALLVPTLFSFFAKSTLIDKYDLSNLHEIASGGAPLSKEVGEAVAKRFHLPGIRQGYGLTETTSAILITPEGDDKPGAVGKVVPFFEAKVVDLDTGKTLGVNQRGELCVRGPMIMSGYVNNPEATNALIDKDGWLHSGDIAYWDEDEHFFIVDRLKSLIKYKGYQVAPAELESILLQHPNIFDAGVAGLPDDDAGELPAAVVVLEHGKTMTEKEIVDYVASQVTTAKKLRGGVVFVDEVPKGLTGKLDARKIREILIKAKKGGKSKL
smiles,measurement,setting,value
O=C(NCCCSc1ccccc1)c1cc(Br)ccc1O,AC50,[1],3.38 µM (active)
same,AC50,[2],4.6 µM (active)
CC(=O)N1CCc2cc(S(=O)(=O)NC(Cc3ccccc3)C(=O)NC3CCCCCC3)ccc21 (stereo not given),IC50,[3],4.58 µM (not active)
CN(Cc1ccccc1)C(=O)CN1CCN(C(c2ccccc2)c2ccccc2)CC1,IC50,[4],11.5 µM (active)
Cc1cccc(N2CCN(C(=S)Nc3ccc4nc(N5CCN(C)CC5)cc(C)c4c3)CC2)c1C,EC50,[5],1.22 µM (inconclusive)
same,EC50,[6],5.6 µM (inconclusive)
same,EC50,[7],1.33 µM (inconclusive)
same,EC50,[8],2.46 µM (active)
same,EC50,[9],0.585 µM (active)
same,AC50,[10],5.45 µM (active)
same,AC50,[11],6.83 µM (active)
CCOC(=O)C1=C(C)NC(=O)CC1c1cc2c(cc1[N+](=O)[O-])OCO2 (stereo not given),IC50,[12],> 50 µM (not active)
same,EC50,[13],1.68 µM (active)
same,IC50,[14],100 µM (active)
Cc1cc(C)cc(NS(=O)(=O)c2ccc(-c3cnc(C4CC4)o3)cc2)c1,EC50,[5],0.346 µM (active)
same,EC50,[6],26.2 µM (active)
same,EC50,[7],0.521 µM (inconclusive)
same,EC50,[8],0.525 µM (active)
same,IC50,[15],> 80 µM (inactive)
same,EC50,[9],< 0.104 µM (active)
COc1cccc(-n2c(=S)sc3c(=O)n(-c4ccccc4OC)c(=S)[nH]c32)c1,IC50,[16],> 66 µM (inactive)
same,IC50,[17],> 66 µM (inactive)
O=C(c1ccc(COc2ccccc2[N+](=O)[O-])o1)N1CCCCCC1,IC50,[4],12.6 µM (active)
CCCN1C(=O)SC(CC(=O)Nc2ccc(C)cc2)C1=O (stereo not given),IC50,[16],> 66 µM (inactive)
same,IC50,[17],> 66 µM (inactive)
CC1=C(C(=O)O)N2C(=O)C(NC(=O)c3ccc(F)cc3)C2SC1 (stereo not given),IC50,[16],> 66 µM (inactive)
same,IC50,[17],> 66 µM (inactive)
CCOC(=O)C1CCCN(c2ccc(NC(=O)c3snc4c(=O)[nH]c(C)nc34)cc2)C1 (stereo not given),IC50,[3],5.25 µM (active)
CC(=O)Nc1ccc(-c2csc(NC(=O)C3CC(=O)N(c4ccc5c(c4)OCCO5)C3)n2)cc1 (stereo not given),IC50,[3],3.44 µM (active)
CC(=O)c1ccc(OCCCC(=O)NC2=NCCS2)cc1,IC50,[16],> 66 µM (inactive)
same,IC50,[17],> 66 µM (inactive)
CCc1ccccc1NC(=O)c1cccc(Oc2ccc([N+](=O)[O-])cc2Cl)c1,AC50,[2],4.35 µM (active)
Cc1ccc(NC(S)=NNC(=O)c2cccc([N+](=O)[O-])c2)cc1Cl,IC50,[4],12.6 µM (active)
CC(=O)c1c2c3c(c(Br)ccc3n(C)c1=O)C(=O)c1ccccc1-2,EC50,[18],> 112 µM (not active)
same,EC50,[19],> 112 µM (not active)
same,IC50,[16],45.8 µM (inactive)
same,IC50,[17],37.5 µM (inactive)
CC(C)(CCC(=S)N1CCOCC1)C1CCCCC1,IC50,[16],> 66 µM (inactive)
same,IC50,[17],> 66 µM (inactive)
CCOC(=O)c1c(NC(=O)CCN2C(=O)c3cccc([N+](=O)[O-])c3C2=O)sc(C(=O)OC(C)C)c1C,IC50,[4],12.6 µM (active)
COc1ccc(N2CCN(C(=O)Cc3ccc(S(=O)(=O)N4CCOCC4)s3)CC2)cc1,IC50,[20],6.08 µM (active)
COc1ccc(NC(=O)CN(C)C(=O)/C=C/c2cn(Cc3ccccc3)nc2-c2cccnc2)cc1,IC50,[20],8.74 µM (active)
Cc1ccc(NC(=O)/C=C/c2ccco2)nc1,IC50,[20],11.7 µM (active)
CC(=O)OC1C(=O)OCC23CCC4(C)OC4C2OC2CC(OC(=O)C=CC=CC(=O)OCCC1C)C3(C)C21CO1 (stereo not given),AC50,[2],2.3 µM (active)
CCOC(=O)C1=C(C)N=c2s/c(=C\c3ccc(C(=O)O)cc3)c(=O)n2C1c1ccc(OC)cc1OC (stereo not given),IC50,[20],7.72 µM (active)
